Experimental data as given in PMC11435220, “Anticancer Activity of Imidazolyl Gold(I/III) Compounds in Non-Small Cell Lung Cancer Cell Lines” (Pharmaceuticals, 2024).
Like-named read-outs stand apart in the source and are kept apart here.

Assays:
H1355 = test: MTT viability assay, H1355; type: cell-based, human; conditions: mean ± span, 48 h treatment, cell line with KRAS mutation
Method: (§1) NSCLC cell lines were obtained from the Hamon Center for Therapeutic Oncology Research (UT Southwestern Medical Center). IMR-90 human lung fibroblasts were from ATCC (CC-186). All cell lines were maintained and treated in RPMI medium (Cytiva (Shanghai, China), #SH30027), supplemented with 10% heat-inactivated FBS (Millipore Sigma (Darmstadt, Germany), F0394).
(§2) 5000–10,000 cells/0.1 mL/well were seeded in 96-well plates to achieve 70% confluence after 24 h. All drug stock solutions were prepared fresh in DMSO at a concentration of 10 mM. The day after cell plating, we added 0.1 mL of medium containing the appropriate drug dilutions. After 48 h of treatment, 10 μL of MTT solution (5 mg/mL) was added to each well. After 4 h incubation, the medium was aspirated, and the formazan salts dissolved in 200 μL DMSO/well for 10 min at 37 °C. The absorbance was read at 570 nm (OD 570 nm). Data are represented as mean ± SD of two independent experiments.
(§3) Statistical and data analysis was performed using GraphPad Prism (v10). IC50 values were calculated using a three-parameter non-linear regression model with log(inhibitor) vs. response. For the TxrR activity statistics, the groups were compared using a two-way ANOVA followed by Dunnett’s multiple comparisons with alpha = 0.05. The correlation between IC50 values and TxrR activity was achieved using Pearson correlation with alpha = 0.05.

H1395 = test: MTT viability assay, H1395; type: cell-based, human; conditions: mean ± span, 48 h treatment, cell line without KRAS mutation
Method: as §1, §2, §3

[1] = biological target: T1, recombinant human DHFR (hDHFR) (Homo sapiens, UniProt P00374); test: Cell-free human dihydrofolate reductase enzymatic activity; type: biochemical; conditions: for effect on hDHFR enzymatic activity: H2F sub-saturating (~20 µM) and close to Km (~3 µM)
T1 construct: made in house; host or cells: E. coli BL21, plasmid pET17b (gift of C. Robert Matthews)
T1 sequence (P00374 1-187): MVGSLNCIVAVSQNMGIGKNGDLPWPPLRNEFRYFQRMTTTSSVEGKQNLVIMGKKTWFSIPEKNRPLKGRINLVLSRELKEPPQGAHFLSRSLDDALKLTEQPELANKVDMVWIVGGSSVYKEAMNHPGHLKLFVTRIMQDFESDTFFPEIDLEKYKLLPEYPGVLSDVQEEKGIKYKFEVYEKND
Method: Recombinant human DHFR was overexpressed and purified from pET17b (+) encoding the hDHFR gene/BL21 (Novagene® (Hong Kong, China)) E. coli cells as described in the literature. The protein purity was verified as a single band in Coomassie-stained SDS-PAGE. The concentration of the hDHFR was measured spectrophotometrically at 280 nm using the extinction coefficient of 28,400 M^−1 cm^−1 and resulted to be equal to 14 µM. The activity of the DHFR was followed by recording the absorbance over time at 340 nm in a UV-VIS spectrophotometer Shimadzu UV-2450. The procedure consisted of mixing the 50 mM Hepes buffer (pH 7.3) with saturating concentration NADPH ([…]) and […] hDHFR, incubating at 37 °C for 5 min, and starting the reaction by adding H2F at various concentrations. When testing the inhibition capacity of gold complexes, the reaction mixture was prepared by adding increasing concentrations of the tested compounds before the incubation at 37 °C. Since the gold complexes were solubilized in 100% methanol (HPLC-grade, Carlo Erba), the enzymatic activity of hDHFR was also assessed in the presence of the equal volumes of MeOH used in the assays with the gold complexes and eventually subtracted. Data are represented as mean ± SEM of 2 independent experiments and analyzed according to best-fit models using GraphPad Prism (v10).
For the data analysis of hDHFR enzymatic activity, the sigmoidal non-linear fitting model in the GraphPad Prism (v10) was used, in which the concentration of inhibitor was expressed as concentrations: Y = Bottom + (Top − Bottom)/(1 + (IC50/X)^HillSlope). Figures were partially prepared with BioRender (https://app.biorender.com) accessed on 25 July 2024).

[2] = test system: TrxR in A549 cell lysates; test: Thioredoxin reductase activity in lysates of treated A549 cells; type: cell-based, human; conditions: for Mean Diff. TrxR activity vs. veh: A549 lysate, 24 h treatment at 5 μM
Method: The enzymatic activity of TrxR in the A549 and H522 cell lysates was measured using the TrxR assay Kit (Abcam ab83463) following the manufacturer’s instructions. This kit is based on the TxrR-mediated reduction of the colorless DTNB into TNB2—(yellow). Briefly, cells were plated to reach 70% confluence on a 100-mm dish in one day. They were treated with 5 μM of the gold compounds or the equivalent quantity of DMSO for 24 h. Then, cells were washed in PBS 1X, detached, and lysed in 100 μL of cold TrxR assay buffer supplemented with the Proteinase Inhibitor Cocktail. 20 μg and 40 μg of total proteins were used for the A549 and the H522, respectively. The DTNB substrate was added to samples with or without TrxR inhibitor (provided with the kit) in 96-well plates. The OD412 was measured soon after the substrate addition (A1) and then after 25, 60, 90, and 110 min (An) at 25 °C using a FLUOstar Omega Microplate Reader (BGM Labtech, Chicago, IL, USA). Data analysis was performed following the manufacturer’s instructions. The OD of TNB2, generated by TrxR in every condition, is:ΔA412 nm = (AnAB − AnINH) − (AB − A1INH) where AB is the assay buffer, and INH is the inhibitor. The TrxR activity is:(2) ΔB/Tn−T1×mg of protein lysate×sample dilution factor=(nmol/min)/mg=mU/mg where ΔB is the TNB amount calculated applying ΔA412 nm to TNB standard curve (in nmol), T1 is the time of the first reading (A1AB, and A1INH) (in min), Tn is the time of the second reading (AnAB and AnINH) (in min). The residual TxrR activity (%) was calculated by normalizing the TxrR activity for each compound with the matching vehicle values at every n time point.
as §3

A549 = test: MTT viability assay, A549; type: cell-based, human; conditions: mean ± span, 48 h treatment, cell line with KRAS mutation
Method: as §1, §2, §3

Compound	IC50 (H1355)	IC50 (H1395)	magnitude of inhibition, hDHFR ([1]; H2F concentration 3.47 µM)	IC50 ([1]; H2F concentration 3.47 µM, read-out: hDHFR IC50)	magnitude of inhibition, hDHFR ([1]; H2F concentration 21.0 µM)	IC50 ([1]; H2F concentration 21.0 µM, read-out: hDHFR IC50)	effect on hDHFR enzymatic activity [1]	Mean Diff. TrxR activity vs. veh ([2]; reading at 25 min)	Mean Diff. TrxR activity vs. veh ([2]; reading at 60 min)	Mean Diff. TrxR activity vs. veh ([2]; reading at 90 min)	Mean Diff. TrxR activity vs. veh ([2]; reading at 110 min)	IC50 (A549)	IC50 ([1]; H2F concentration 3.89 µM, sigmoidal fit, read-out: hDHFR IC50)	IC50 ([1]; H2F concentration 22.6 µM, sigmoidal fit, read-out: hDHFR IC50)	reduction of the enzymatic activity of hDHFR (conclusions) ([1]; dihydrofolate concentration comparable with the Km)	IC50 ([1]; dihydrofolate concentration comparable with the Km, read-out: hDHFR IC50 (conclusions))	TrxR activity reduction / inhibition ([2]; A549, 24 h treatment, stated for both cell lines)
Clc1n[c]([Au-][P+](c2ccccc2)(c2ccccc2)c2ccccc2)n(Cc2ccccc2)c1Cl [Compound 7]	7.8 ± 0.61 µM	6.3 ± 0.98 µM	~ 50%	10.9 ± 9.77 µM	~ 50%	23.6 ± 20.7 µM	very little effect on the enzymatic activity	−59.2%	−44.4%	−56.35%	−53.76%	16 ± 1.3 µM	–	–	–	–	–
Cn1cc[n+](C)[c]1[Au-2]([Cl])[P+](c1ccccc1)(c1ccccc1)c1ccccc1 [Compound 8]	6.4 ± 0.65 µM	5.9 ± 0.97 µM	–	–	–	–	important inhibitory function	−86.87%	−80.79%	−82.25%	−82.25%	9.1 ± 1.2 µM	15 ± 1.25 µM	14.8 ± 1.25 µM	80%	~15 µM	more than 80%
